Results reported in patent US10253085B2, “CD31 peptides for the treatment of thrombotic or autoimmune disorders” (INSERM (INSTITUT NATIONAL DE LA SANTE ET DE LA RECHERCHE …, priority 2008, dated 2019).
Residues, ends and D or L forms follow the SMILES beside them.

What was measured:
[1] = biological target: T1, peptide 551-574 coated on CM5 chips (Mus musculus, UniProt Q08481); assay: Surface plasmon resonance (BIAcore) homophilic binding of peptide 551-574; conditions: homophilic interaction
T1 construct: made in house; host or cells: chemical synthesis (no expression host)
Experimental: Homophilic binding association and dissociation constants were calculated by surface plasmon resonance (BIAcore® 2000, GE). In brief, peptide 551-574 was coated at 3400 resonance units (RU) on CM5 chips according to the manufacturer's instructions. Soluble peptide 551-574 (12.5, 25, 50 and 100 μM in 200 μl of 10 mM HEPES pH 7.4, 150 mM NaCl, 0.005% Tween 20) was injected at 20 μl/min at 25° C., on the peptide-coated channel and on an uncoated channel. Dissociation was monitored for 300 seconds. Association (kon) and dissociation (koff) constants were calculated using the BlAevaluation® 3.0 Software (GE).

[2] = system: scramble peptide; assay: Surface plasmon resonance (BIAcore), channel coated with the scramble peptide; format: binding; conditions: injection of soluble peptide
[3] = system: Spleen cells from C57Bl/6 mice; assay: Calcium mobilisation assay in Fluo-3AM-loaded spleen cells; format: cell-based, mouse; conditions: anti-CD3/CD28, peptide 100 μM; compared with anti-CD31 antibody cross-linking
Experimental: Spleen cells from C57Bl/6 mice were prepared as described in Caligiuri et al. (2005 Arterioscler Thromb Vasc Biol 25:1659-1664). Cells were incubated with Fluo-3AM (Invitrogen, # F1242) as per the instructions of the manufacturer. Fluorescence of calcium-bound tracer was measured in the FITC channel on an LSRII® cytometer (BD Biosciences) prior to and during 60 seconds following the addition of hamster anti-mouse CD3/CD28 monoclonal antibodies (40 μg/ml each) and rat/hamster compBead® (1:50) either alone or in the presence of rat anti-mouse CD31 antibody (clone 390, 10 μg/ml) or in the presence of CD31 peptide 551-574 (100 μM). Negative controls included rat IgG isotype control and scramble peptide. Antibodies and compBeads® were from BD Biosciences.

[4] = system: spleen cells from C57Bl/6 (CD31^+/+) mice; assay: Proliferation in response to TCR stimulation, CD31+/+ spleen cells; format: cell-based, mouse; conditions: peptide 25, 50, 100 μM, scramble peptide 100 μM
Experimental: CD8^+ T cell-mediated cytolytic activity against allogeneic mouse aortic smooth muscle cells and measurement of macrophage gelatinase (MMP-2/9) activity were performed as previously described for human cells in Caligiuri et al. (2006 Arterioscler Thromb Vasc Biol 26:618-623) using kits and reagents from Invitrogen. Briefly, primary cultures of FVB/N mouse aorta smooth muscle cells were labelled with the lipophylic tracer DIO (green) and co-cultured for 3 hours with CD8+ T cell-enriched spleen cells from C57Bl/6 mice (n=3 scramble peptide and n=3 peptide 551-574, 50 μM). Cytolysis was evaluated by intracellular accumulation of propidium iodide (PI). Cells were analysed by flow cytometry and the % of cytolysis was calculated by expressing the number of dead (PI+) cells among the target (DIO+) cells. Intracellular MMP-2/9 (gelatinase) activity was measured by flow cytometry in 7-day bone-marrow derived macrophages from C57Bl/6 mice (n=3 scramble peptide and n=3 peptide 551-574, 50 μM) three hours after the incorporation of OregonGreen® gelatine (MFI). T-cell proliferation was performed using either human peripheral blood mononuclear cells of spleen cells from C57Bl/6 (CD31^+/+) and CD31^−/− mice (Charles River France) as previously described (Caligiuri et al. 2005 Arterioscler Thromb Vasc Biol 25:1659-1664). Briefly, cells were plated in triplicates at 0.2×10^6 cells/well in a U bottom 96-well plate in complete medium (RPMI 1640, 1% pyruvate, 1% glutamine, 1% penicillin-streptomicyne-fungizone, 10% decomplemented fetal calf serum, all from Invitrogen) containing 1 μg/ml anti-mouse CD3/CD28 or 5 μg/ml anti-human CD3 antibodies (BD) as appropriate. CD31 (551-574) and scramble peptide at 25, 50 and 100 μM final concentration were deposited in the wells just before cell plating. Plated cells were cultured for 72 hours in 5% CO2 at 37° C. (^3H) thymidine (0.5 μCi/well) was added for the last 16 hours and proliferation evaluated using a Tomtec harvester and analysis on a Wallac micro beta counter. Data are expressed as mean±SEM of cpm in triplicates.

[5] = system: allogeneic mouse aortic smooth muscle cells; assay: CD8+ T cell-mediated cytolytic activity against allogeneic smooth muscle cells; format: cell-based; conditions: peptide 50 μM, 3 hours co-culture
Experimental: CD8^+ T cell-mediated cytolytic activity against allogeneic mouse aortic smooth muscle cells and measurement of macrophage gelatinase (MMP-2/9) activity were performed as previously described for human cells in Caligiuri et al. (2006 Arterioscler Thromb Vasc Biol 26:618-623) using kits and reagents from Invitrogen. Briefly, primary cultures of FVB/N mouse aorta smooth muscle cells were labelled with the lipophylic tracer DIO (green) and co-cultured for 3 hours with CD8+ T cell-enriched spleen cells from C57Bl/6 mice (n=3 scramble peptide and n=3 peptide 551-574, 50 μM). Cytolysis was evaluated by intracellular accumulation of propidium iodide (PI). Cells were analysed by flow cytometry and the % of cytolysis was calculated by expressing the number of dead (PI+) cells among the target (DIO+) cells. Intracellular MMP-2/9 (gelatinase) activity was measured by flow cytometry in 7-day bone-marrow derived macrophages from C57Bl/6 mice (n=3 scramble peptide and n=3 peptide 551-574, 50 μM) three hours after the incorporation of OregonGreen® gelatine (MFI). […] (^3H) thymidine (0.5 μCi/well) was added for the last 16 hours and proliferation evaluated using a Tomtec harvester and analysis on a Wallac micro beta counter. Data are expressed as mean±SEM of cpm in triplicates.

[6] = system: CD4+ cells from C57Bl6 mice; assay: CD4+ T cell activation, early activation marker CD69 by flow cytometry; format: cell-based, mouse; conditions: 18 hours culture
Experimental: Alternatively, the T-cell proliferation assay may comprise comparing expression levels of the early activation marker CD69 in T-cells cultured either in the presence or in the absence of the compound to be tested. This assay may for example be performed as follows: • providing purified CD4+ cells (e.g. purified from C57B16 mice); • stimulating said CD4+ cells by addition of anti-CD3 purified antibodies and bone marrow derived dendritic cells; • culturing the cells for about 18 hours; and • analyzing said cells for the expression of the early activation marker CD69, e.g. by flow cytometry; and • comparing CD69 expression in the presence of the compound to be tested.
The immunosuppressive properties of PepReg (10aa) vs the 23 aa parent peptide were evaluated in vitro. Negatively purified CD4+ cells from C57Bl6 mice were stimulated by soluble anti-CD3 purified antibodies and bone marrow derived dendritic cells. Cells from triplicate wells were analyzed for the expression of the early activation marker CD69 after 18 hours culture in complete RPMI medium supplemented with 10% fetal calf serum.

[7] = system: C57BL/6J mice immunized with MOG35-55 peptide; assay: Experimental Autoimmune Encephalomyelitis (EAE) model; format: in vivo, mouse; conditions: single peptide shot
Experimental: Twelve-week old female C57BL/6J mice were immunized with 300 μg of MOG35-55 peptide emulsified in Complete Freund's Adjuvant 1:1 by volume containing 800 μg of nonviable desiccated Mycobacterium tuberculosis H37RA. A final volume of 200 μl of the emulsion was injected subcutaneously at 4 sites (50 μl/site) over the flanks. In addition, 300 ng of Pertussis toxin was injected intravenously (retro-orbital plexus) on the same day and 2 days later. Clinical signs of EAE ware assessed daily by the following scoring system: 0, no signs; 1, hindlimb weakness; 2, hindlimb weakness and tail paralysis; 3, hindlimb and tail paralysis; 4, hindlimb and tail paralysis and forelimb weakness; 5, moribund state; and 6, death. The peak (waxing phase) occured around day 21. In this C57BL/6J mouse model, there was no waning phase as assessed in our laboratory up to day 41.
The experiment was carried out with ten mice per group. The mice of each group were treating with either of: • PBS; • PepReg (SEQ ID NO: 3); or • PepScra (SEQ ID NO: 14).
The dosing was of 50 μg of peptide per mice and per day (i.e. about 2 mg/Kg per day). The peptide was administered by a subcutaneous injection.

SMILES: CSCC[C@H](NC(=O)[C@H](CO)NC(=O)[C@@H](N)CO)C(=O)N[C@@H](CCCNC(=N)N)C(=O)N[C@H](C(=O)N[C@@H](CO)C(=O)N1CCC[C@H]1C(=O)N[C@@H](CCCNC(=N)N)C(=O)N[C@@H](CO)C(=O)N[C@@H](CO)C(=O)N[C@H](C(=O)N[C@@H](CC(C)C)C(=O)N[C@@H](C)C(=O)N[C@H](C(=O)N[C@@H](CCCNC(=N)N)C(=O)N[C@H](C(=O)N[C@@H](Cc1ccccc1)C(=O)N[C@@H](CC(C)C)C(=O)N[C@@H](C)C(=O)N1CCC[C@H]1C(=O)N[C@@H](Cc1c[nH]c2ccccc12)C(=O)N[C@@H](CCCCN)C(=O)N[C@@H](CCCCN)C(=O)O)C(C)C)C(C)C)[C@@H](C)O)[C@@H](C)O [peptide 551-574] (H-SSMRTSPRSSTLAVRVFLAPWKK-OH)
- kon ([1]; 25° C., analyte 12.5-100 μM, read-out: association constant (kon)): 134 ± 120 M⁻¹ s⁻¹
- koff ([1]; 25° C., read-out: dissociation constant (koff)): 0.00158 s⁻¹
- Kd ([1]; read-out: affinity at equilibrium): 17.8 ± 9.7 µM
- signal on a channel coated with the scramble peptide [2]: negligible signal
- inhibition of TCR-induced calcium mobilization [3]: as an efficient immunoregulatory strategy as it is the co-ligation of CD3 and CD28 with the distal portion of CD31
- proliferation of CD31+/+ spleen cells in response to TCR stimulation [4]: inhibits in a dose-dependent manner
- proliferation of CD31+/+ spleen cells in response to TCR stimulation ([4]; listed as mouse CD31 peptide 551-574): dose-dependent inhibition
- CD8+ T cell-dependent cytolysis of murine aortic smooth muscle cells [5]: inhibited
- dose at which suppression of CD69 expression was observed [6]: 100 µg/mL
- duration of protective effect in EAE [7]: up to 5 days
